Experimental data as given in the NIST ThermoML archive (doi:10.1016/j.jct.2015.01.004).
Several values for one entry are separate records, joined by “and”; a condition that tells them apart may be missing. Identical values can stand only once.

Experiment: molar heat capacity at constant pressure; xn = mol fraction of the nth substance listed
Conditions: 100 kPa

[Si] [silicon] + [Li]
Conditions	molar heat capacity at constant pressure
298.15 K, Crystal of intercomponent compound 2, relaxation calorimetry + DSC, x2 = 0.804	22.75 J/K/mol
298.32 K, Crystal of intercomponent compound 1, relaxation calorimetry, x2 = 0.81	21.66 J/K/mol
298.33 K, Crystal of intercomponent compound 2, relaxation calorimeter, x2 = 0.804	22.58 J/K/mol
300 K, Crystal of intercomponent compound 1, relaxation calorimetry + DSC, x2 = 0.81	22.58 J/K/mol
300 K, Crystal of intercomponent compound 2, relaxation calorimetry + DSC, x2 = 0.804	22.79 J/K/mol
302.31 K, Crystal of intercomponent compound 1, relaxation calorimetry, x2 = 0.81	21.75 J/K/mol
302.34 K, Crystal of intercomponent compound 2, relaxation calorimeter, x2 = 0.804	22.69 J/K/mol
304.67 K, Crystal of intercomponent compound 2, Small sample (50 mg) DSC, x2 = 0.804	23.11 J/K/mol and 23.16 J/K/mol
304.7 K, Crystal of intercomponent compound 1, Small sample (50 mg) DSC, x2 = 0.81	22.87 J/K/mol and 22.84 J/K/mol
304.7 K, Crystal of intercomponent compound 2, Small sample (50 mg) DSC, x2 = 0.804	23.05 J/K/mol
304.87 K, Crystal of intercomponent compound 1, Small sample (50 mg) DSC, x2 = 0.81	22.81 J/K/mol
304.88 K, Crystal of intercomponent compound 1, Small sample (50 mg) DSC, x2 = 0.81	22.77 J/K/mol
314.59 K, Crystal of intercomponent compound 2, Small sample (50 mg) DSC, x2 = 0.804	23.41 J/K/mol and 23.55 J/K/mol
314.61 K, Crystal of intercomponent compound 1, Small sample (50 mg) DSC, x2 = 0.81	23.01 J/K/mol and 23.1 J/K/mol
314.61 K, Crystal of intercomponent compound 2, Small sample (50 mg) DSC, x2 = 0.804	23.42 J/K/mol
314.8 K, Crystal of intercomponent compound 1, Small sample (50 mg) DSC, x2 = 0.81	22.99 J/K/mol
314.81 K, Crystal of intercomponent compound 1, Small sample (50 mg) DSC, x2 = 0.81	22.91 J/K/mol
320 K, Crystal of intercomponent compound 1, relaxation calorimetry + DSC, x2 = 0.81	23.07 J/K/mol
320 K, Crystal of intercomponent compound 2, relaxation calorimetry + DSC, x2 = 0.804	23.22 J/K/mol
324.51 K, Crystal of intercomponent compound 2, Small sample (50 mg) DSC, x2 = 0.804	23.8 J/K/mol and 23.85 J/K/mol
324.52 K, Crystal of intercomponent compound 1, Small sample (50 mg) DSC, x2 = 0.81	23.19 J/K/mol and 23.22 J/K/mol
324.52 K, Crystal of intercomponent compound 2, Small sample (50 mg) DSC, x2 = 0.804	23.8 J/K/mol
324.71 K, Crystal of intercomponent compound 1, Small sample (50 mg) DSC, x2 = 0.81	23.19 J/K/mol
324.72 K, Crystal of intercomponent compound 1, Small sample (50 mg) DSC, x2 = 0.81	23.11 J/K/mol
334.42 K, Crystal of intercomponent compound 2, Small sample (50 mg) DSC, x2 = 0.804	24.09 J/K/mol and 24.14 J/K/mol
334.43 K, Crystal of intercomponent compound 2, Small sample (50 mg) DSC, x2 = 0.804	24.12 J/K/mol
334.44 K, Crystal of intercomponent compound 1, Small sample (50 mg) DSC, x2 = 0.81	23.32 J/K/mol and 23.34 J/K/mol
334.63 K, Crystal of intercomponent compound 1, Small sample (50 mg) DSC, x2 = 0.81	23.4 J/K/mol
334.64 K, Crystal of intercomponent compound 1, Small sample (50 mg) DSC, x2 = 0.81	23.38 J/K/mol
340 K, Crystal of intercomponent compound 1, relaxation calorimetry + DSC, x2 = 0.81	23.51 J/K/mol
340 K, Crystal of intercomponent compound 2, relaxation calorimetry + DSC, x2 = 0.804	23.65 J/K/mol
344.33 K, Crystal of intercomponent compound 2, Small sample (50 mg) DSC, x2 = 0.804	24.3 J/K/mol and 24.38 J/K/mol
344.35 K, Crystal of intercomponent compound 1, Small sample (50 mg) DSC, x2 = 0.81	23.65 J/K/mol and 23.63 J/K/mol
344.35 K, Crystal of intercomponent compound 2, Small sample (50 mg) DSC, x2 = 0.804	24.37 J/K/mol
344.54 K, Crystal of intercomponent compound 1, Small sample (50 mg) DSC, x2 = 0.81	23.6 J/K/mol
344.55 K, Crystal of intercomponent compound 1, Small sample (50 mg) DSC, x2 = 0.81	23.53 J/K/mol
354.24 K, Crystal of intercomponent compound 2, Small sample (50 mg) DSC, x2 = 0.804	24.56 J/K/mol and 24.6 J/K/mol
354.26 K, Crystal of intercomponent compound 1, Small sample (50 mg) DSC, x2 = 0.81	23.98 J/K/mol and 23.97 J/K/mol
354.26 K, Crystal of intercomponent compound 2, Small sample (50 mg) DSC, x2 = 0.804	24.57 J/K/mol
354.45 K, Crystal of intercomponent compound 1, Small sample (50 mg) DSC, x2 = 0.81	23.8 J/K/mol
354.46 K, Crystal of intercomponent compound 1, Small sample (50 mg) DSC, x2 = 0.81	23.72 J/K/mol
360 K, Crystal of intercomponent compound 1, relaxation calorimetry + DSC, x2 = 0.81	23.91 J/K/mol
360 K, Crystal of intercomponent compound 2, relaxation calorimetry + DSC, x2 = 0.804	24.08 J/K/mol
364.16 K, Crystal of intercomponent compound 2, Small sample (50 mg) DSC, x2 = 0.804	24.81 J/K/mol and 24.83 J/K/mol
364.17 K, Crystal of intercomponent compound 1, Small sample (50 mg) DSC, x2 = 0.81	24.15 J/K/mol and 24.13 J/K/mol
364.17 K, Crystal of intercomponent compound 2, Small sample (50 mg) DSC, x2 = 0.804	24.69 J/K/mol
364.36 K, Crystal of intercomponent compound 1, Small sample (50 mg) DSC, x2 = 0.81	24.02 J/K/mol
364.37 K, Crystal of intercomponent compound 1, Small sample (50 mg) DSC, x2 = 0.81	23.91 J/K/mol
374.07 K, Crystal of intercomponent compound 2, Small sample (50 mg) DSC, x2 = 0.804	24.83 J/K/mol and 24.87 J/K/mol and 24.94 J/K/mol
374.08 K, Crystal of intercomponent compound 1, Small sample (50 mg) DSC, x2 = 0.81	24.33 J/K/mol and 24.27 J/K/mol
374.28 K, Crystal of intercomponent compound 1, Small sample (50 mg) DSC, x2 = 0.81	24.24 J/K/mol and 24.13 J/K/mol
380 K, Crystal of intercomponent compound 1, relaxation calorimetry + DSC, x2 = 0.81	24.29 J/K/mol
380 K, Crystal of intercomponent compound 2, relaxation calorimetry + DSC, x2 = 0.804	24.51 J/K/mol
383.99 K, Crystal of intercomponent compound 2, Small sample (50 mg) DSC, x2 = 0.804	25.05 J/K/mol
384.19 K, Crystal of intercomponent compound 1, Small sample (50 mg) DSC, x2 = 0.81	24.35 J/K/mol
384.2 K, Crystal of intercomponent compound 1, Small sample (50 mg) DSC, x2 = 0.81	24.46 J/K/mol
393.9 K, Crystal of intercomponent compound 2, Small sample (50 mg) DSC, x2 = 0.804	25.16 J/K/mol and 25.27 J/K/mol
394.11 K, Crystal of intercomponent compound 1, Small sample (50 mg) DSC, x2 = 0.81	24.46 J/K/mol
394.12 K, Crystal of intercomponent compound 1, Small sample (50 mg) DSC, x2 = 0.81	24.68 J/K/mol
400 K, Crystal of intercomponent compound 1, relaxation calorimetry + DSC, x2 = 0.81	24.63 J/K/mol
400 K, Crystal of intercomponent compound 2, relaxation calorimetry + DSC, x2 = 0.804	24.94 J/K/mol
403.81 K, Crystal of intercomponent compound 2, Small sample (50 mg) DSC, x2 = 0.804	25.3 J/K/mol and 25.35 J/K/mol
404.02 K, Crystal of intercomponent compound 1, Small sample (50 mg) DSC, x2 = 0.81	24.57 J/K/mol
404.03 K, Crystal of intercomponent compound 1, Small sample (50 mg) DSC, x2 = 0.81	25.01 J/K/mol
413.73 K, Crystal of intercomponent compound 2, Small sample (50 mg) DSC, x2 = 0.804	25.46 J/K/mol and 25.49 J/K/mol
413.94 K, Crystal of intercomponent compound 1, Small sample (50 mg) DSC, x2 = 0.81	24.68 J/K/mol and 25.12 J/K/mol
420 K, Crystal of intercomponent compound 1, relaxation calorimetry + DSC, x2 = 0.81	24.96 J/K/mol
420 K, Crystal of intercomponent compound 2, relaxation calorimetry + DSC, x2 = 0.804	25.37 J/K/mol
423.64 K, Crystal of intercomponent compound 2, Small sample (50 mg) DSC, x2 = 0.804	25.57 J/K/mol and 25.65 J/K/mol
423.85 K, Crystal of intercomponent compound 1, Small sample (50 mg) DSC, x2 = 0.81	24.68 J/K/mol
423.86 K, Crystal of intercomponent compound 1, Small sample (50 mg) DSC, x2 = 0.81	25.12 J/K/mol
433.56 K, Crystal of intercomponent compound 2, Small sample (50 mg) DSC, x2 = 0.804	25.68 J/K/mol and 25.75 J/K/mol
433.76 K, Crystal of intercomponent compound 1, Small sample (50 mg) DSC, x2 = 0.81	25.01 J/K/mol
433.77 K, Crystal of intercomponent compound 1, Small sample (50 mg) DSC, x2 = 0.81	25.23 J/K/mol
440 K, Crystal of intercomponent compound 1, relaxation calorimetry + DSC, x2 = 0.81	25.28 J/K/mol
440 K, Crystal of intercomponent compound 2, relaxation calorimetry + DSC, x2 = 0.804	25.8 J/K/mol
443.48 K, Crystal of intercomponent compound 2, Small sample (50 mg) DSC, x2 = 0.804	25.83 J/K/mol and 25.95 J/K/mol
443.67 K, Crystal of intercomponent compound 1, Small sample (50 mg) DSC, x2 = 0.81	25.01 J/K/mol
443.69 K, Crystal of intercomponent compound 1, Small sample (50 mg) DSC, x2 = 0.81	25.56 J/K/mol
453.39 K, Crystal of intercomponent compound 2, Small sample (50 mg) DSC, x2 = 0.804	25.96 J/K/mol and 26.21 J/K/mol
453.59 K, Crystal of intercomponent compound 1, Small sample (50 mg) DSC, x2 = 0.81	25.01 J/K/mol
